Measured values: article PMC8931322 (Proceedings of the National Academy of Sciences of the …, 2022)

Legend:
Type in all cases: cell-based
BIN2/AtSK21 = target: T1, BIN2/AtSK21 (Arabidopsis thaliana, UniProt Q39011); test: CETSA melting curve, Western blot; details: intact cells, 250 µM bikinin, 30 min
T1 sequence (Q39011 1-380): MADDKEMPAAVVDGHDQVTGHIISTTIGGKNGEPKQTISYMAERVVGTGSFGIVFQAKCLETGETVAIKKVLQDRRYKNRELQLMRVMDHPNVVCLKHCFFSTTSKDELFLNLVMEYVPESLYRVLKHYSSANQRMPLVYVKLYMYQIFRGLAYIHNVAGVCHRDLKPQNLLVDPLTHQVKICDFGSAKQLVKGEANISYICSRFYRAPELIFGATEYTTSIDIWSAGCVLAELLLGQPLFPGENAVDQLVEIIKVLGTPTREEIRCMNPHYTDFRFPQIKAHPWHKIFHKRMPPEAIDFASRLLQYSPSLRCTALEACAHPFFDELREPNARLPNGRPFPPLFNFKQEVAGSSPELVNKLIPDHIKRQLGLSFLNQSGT

AtSK41 = target: T2, AtSK41 (Arabidopsis thaliana, UniProt Q39019); test: CETSA melting curve, Western blot; details: intact cells, 250 µM bikinin, 30 min
T2 sequence (Q39019 1-421): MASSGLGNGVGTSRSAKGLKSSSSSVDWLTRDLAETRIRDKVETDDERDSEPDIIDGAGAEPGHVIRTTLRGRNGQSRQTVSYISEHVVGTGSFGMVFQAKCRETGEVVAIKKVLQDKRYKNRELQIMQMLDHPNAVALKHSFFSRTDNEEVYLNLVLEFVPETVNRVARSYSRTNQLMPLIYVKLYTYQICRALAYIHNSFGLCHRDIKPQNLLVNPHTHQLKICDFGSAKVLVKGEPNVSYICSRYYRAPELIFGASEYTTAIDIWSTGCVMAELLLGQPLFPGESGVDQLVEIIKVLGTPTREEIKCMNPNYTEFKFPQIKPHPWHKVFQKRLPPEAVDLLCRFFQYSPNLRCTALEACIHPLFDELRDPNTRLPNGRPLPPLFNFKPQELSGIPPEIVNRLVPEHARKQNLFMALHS

AtSK22 = target: T3, AtSK22 (Arabidopsis thaliana, UniProt Q39012); test: CETSA melting curve, Western blot; details: intact cells, 250 µM bikinin, 30 min
T3 sequence (Q39012 2-407): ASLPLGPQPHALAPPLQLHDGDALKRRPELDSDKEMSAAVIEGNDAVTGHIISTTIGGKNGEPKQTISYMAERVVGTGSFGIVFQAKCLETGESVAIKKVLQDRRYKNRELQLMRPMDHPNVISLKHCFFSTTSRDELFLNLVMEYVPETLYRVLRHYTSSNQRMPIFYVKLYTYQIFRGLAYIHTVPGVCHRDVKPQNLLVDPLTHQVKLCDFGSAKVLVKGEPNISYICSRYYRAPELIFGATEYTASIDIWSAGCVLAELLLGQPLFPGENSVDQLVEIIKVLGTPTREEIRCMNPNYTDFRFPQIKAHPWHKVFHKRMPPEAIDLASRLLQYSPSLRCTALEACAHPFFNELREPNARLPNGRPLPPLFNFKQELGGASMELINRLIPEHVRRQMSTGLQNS

AtSK11 = target: T4, AtSK11 (Arabidopsis thaliana, UniProt P43288); test: CETSA melting curve, Western blot; details: intact cells, 250 µM bikinin, 30 min
T4 sequence (P43288 2-405): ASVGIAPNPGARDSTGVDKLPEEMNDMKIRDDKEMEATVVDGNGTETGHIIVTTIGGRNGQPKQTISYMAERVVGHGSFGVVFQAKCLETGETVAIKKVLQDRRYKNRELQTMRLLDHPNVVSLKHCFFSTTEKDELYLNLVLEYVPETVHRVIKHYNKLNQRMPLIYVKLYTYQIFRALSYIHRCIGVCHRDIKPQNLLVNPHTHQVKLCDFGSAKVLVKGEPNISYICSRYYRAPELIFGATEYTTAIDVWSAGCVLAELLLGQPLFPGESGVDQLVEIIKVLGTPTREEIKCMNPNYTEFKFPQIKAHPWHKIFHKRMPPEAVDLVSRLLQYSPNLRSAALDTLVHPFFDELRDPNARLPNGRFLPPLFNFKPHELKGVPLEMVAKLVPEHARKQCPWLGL

AtSK12 = target: T5, AtSK12 (Arabidopsis thaliana, UniProt P43289); test: isothermal dose-response CETSA
T5 sequence (P43289 2-409): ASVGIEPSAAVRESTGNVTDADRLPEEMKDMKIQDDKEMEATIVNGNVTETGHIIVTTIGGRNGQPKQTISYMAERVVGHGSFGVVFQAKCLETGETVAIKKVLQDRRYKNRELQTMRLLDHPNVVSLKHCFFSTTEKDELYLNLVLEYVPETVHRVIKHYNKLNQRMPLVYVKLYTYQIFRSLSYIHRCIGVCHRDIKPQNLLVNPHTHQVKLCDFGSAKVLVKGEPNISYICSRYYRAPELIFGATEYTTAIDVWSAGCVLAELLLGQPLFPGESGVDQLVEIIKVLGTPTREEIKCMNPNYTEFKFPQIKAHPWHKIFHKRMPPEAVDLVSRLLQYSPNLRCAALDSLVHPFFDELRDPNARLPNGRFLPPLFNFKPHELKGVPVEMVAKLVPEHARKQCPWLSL

EC50 (AtSK12): ~70 µM
SMILES: O=C(O)CCC(=O)Nc1ccc(Br)cn1 [bikinin]
Tm shift (BIN2/AtSK21): BIN2/AtSK21, AtSK22, and AtSK41 showed Tm shifts
Tm shift (AtSK41): BIN2/AtSK21, AtSK22, and AtSK41 showed Tm shifts
Tm shift (AtSK22): BIN2/AtSK21, AtSK22, and AtSK41 showed Tm shifts
Tm shift (AtSK11): AtSK11, AtSK12, AtSK13, BIN2/AtSK21, AtSK22, and AtSK41 showed Tm shifts
